Test results as given in patent US10485803B2, “Pyrimidine compounds as JAK kinase inhibitors” (THERAVANCE BIOPHARMA R&D IP, LLC, priority 2016, dated 2019).
Entries after “also recorded” stand apart in the source; their conditions may differ. Read-outs that look alike come from different tables or passages of the source.

What was measured:
[1] = Determination of absorption in cannulated rats; format: in vivo, Sprague Dawley rats; conditions: rat, oral vs IV dose
Experimental: Oral bioavailability (F %), fraction absorbed (Fa%) and fraction escaping hepatic clearance (Fh%) were determined in Sprague Dawley rats from the following two studies:
(1) Pharmacokinetics in rats following an IV dose of test compound: Following IV dosing, plasma samples were typically collected from 0-6 hr. Drug levels were determined using an LC-MS-MS method. The resulting drug levels were used to compute the IV pharmacokinetic parameters: AUC IV and Dose IV.
(2) Rats that have been cannulated in their portal vein (PV) and also in their jugular vein (JV) were dosed orally with test compound. Following oral dosing, plasma samples were typically collected from 0-6 hr from both the portal vein and the jugular vein. Drug levels were determined using an LC-MS-MS method. The resulting drug levels were used to compute the following pharmacokinetic parameters: AUC PO PV, AUC PO JV, and Dose PO.
Using data derived from the above studies, the oral bioavailability F %, and the quantities Fa% and Fh% were calculated from the following formulas: F%=(AUC PO JV/AUC IV)*(Dose IV/Dose PO)*100 Fa%=(AUC PO PV/AUC IV)*(Dose IV/Dose PO)*100 Fh%=AUC PO JV/AUC PO PV • where: • AUC PO JV=Area under the curve following oral dose and plasma collected from the jugular vein • AUC PO PV=Area under the curve following oral dose and plasma collected from the portal vein • AUC IV=Area under the curve following an intravenous dose • Dose IV=Intravenous Dose in mg/kg • Dose PO=Oral Dose in mg/kg

[2] = Colon pharmacokinetics in rats; format: in vivo, Sprague Dawley rats; conditions: rat, upon oral administration, dose not stated
[3] = system: oxazolone-induced colitis; assay: Mouse model of oxazolone-induced colitis; format: in vivo, BALB/C mice; conditions: mice, PO, 1, 3, and/or 10 mg/kg BID
Experimental: Oxazolone-induced colitis is an experimental model that has a histological resemblance to human ulcerative colitis (Heller et al. […], 2002, 17, 629-638). Adult BALB/C mice from Harlan were used in the assay. On day 1, animals were lightly anesthetized with isoflurane and the hairs between the shoulder were carefully removed before oxazolone (4%, 150 μL, 4:1 acetone: olive oil formulation) or vehicle solution was slowly applied for skin sensitization. Seven days after skin sensitization, the mice were fasted overnight, anesthetized with isoflurane inhalation, and a 1 mL syringe equipped with a 3.5-F catheter, filled with oxazolone solution, was inserted carefully about 4 cm into the colon of the mouse. Following insertion, 50 μL of the oxazolone solution (1%, 1:1 ethanol:water formulation) was injected very slowly (over 30 sec using an injection pump) into the colon. The catheter was removed and the mice were held vertically (head down) for 2 min to ensure that the entire oxazolone solution remained inside the colon. Drug treatment (PO, BID or TID) or vehicle was initiated a day prior to the oxazolone intrarectal (IR) challenge. Two-day post oxazolone intrarectal challenge, the Disease Activity Index (DAI) was assessed by treatment-blinded experimenters for each mouse according to the criteria score: stool consistency score (0, normal; 2, loose; 4, diarrhea), gross bleeding score (0, absence; 2, blood tinged; 4, presence), and weight loss score (0, none; 1, 1%-5%; 2, 5%-10%; 3, 10%-20%; 4, more than 20%); DAI=average of (stool consistency score+gross bleeding score+weight loss score).

[4] = system: mouse splenic NK, B and T cells; conditions: in vivo; for treatment effect on B and T cell populations: po
Experimental: Depletion of mouse splenic cells is an experimental model of immunosuppression (Kudlacz et al., Am. J. of Transplantation, 2004, 4, 51-57). The compound of Example 2 was assessed in the mouse splenic cell model following the same treatment paradigm as that used in the oxazolone-induced colitis model (Assay 8).
The compound (1, 10 and 100 mg/kg, BID) and tofacitinib (30 and 60 mg/kg, BID) as a positive control were dosed orally for three days to naïve mice. Spleens were harvested 1 h post last dose and crushed immediately for cell subtype staining. Prior to fixation, fluorophore-labelled antibodies for CD19 (FITC; B cells), CD3e (PE; pan T cells) and DX5 (APC; NK cells) were incubated with splenocyte samples from each animal to allow for simultaneous, multiple subtype % analysis on the flow cytometer. The number of total spleen cells for each animal was measured by Scepter™ 2.0 Handheld Automated Cell Counter.
The absolute number of lymphocyte subtype population (e.g., splenic B, T and NK cells) was calculated from the percentage of each subtype times total spleen cells for each animal. A one way ANOVA, with Dunnett's post hoc test, was used to compare the splenic lymphocytes number of the vehicle and test compound groups. The a level was set at p<0.05. Data were presented as the mean±SEM for each group.

[5] = in vivo
Source text: The objective of this assay was to determine the epidermal, dermal and plasma pharmacokinetics of a test compound following a 24 hr exposure to intact mouse or mini-pig skin.
Twenty-four hours prior to dosing the hair was shaved from the back of 25 g male Balb/c mice exposing an area at of least 6 cm^2 (about 10% of body surface) and, in a separate experiment, of 10 kg Gottingen mini-pigs exposing an area of at least 450 cm^2 (about 10% of body surface). […] The skin was covered with an adhesive cover to prevent loss of compound to the cage or bedding.
Following 24 h exposure, the backs were gently washed with soap and water to remove non-absorbed drug and patted dry. Immediately following this washing, blood was drawn by cardiac puncture from the mice and via venipuncture from the mini-pigs. The outer skin (stratum corneum) was then removed by adhesive tape stripping. Upon exposure of the epidermis a 0.5 cm punch biopsy was taken. The epidermis and dermis were quickly separated, weighed and snap frozen.

[6] = system: TPA-induced increase in ear thickness; assay: Topical TPA-induced irritant contact dermatitis model in mice; format: in vivo, Balb/c mice; conditions: 6 hours after TPA
Experimental: The objective of this assay is to assess the anti-inflammatory effect in a model of acute dermatitis of test compounds being studied for cutaneous inflammatory conditions such as atopic dermatitis (Dong et al., J Pharmacol Exp Ther, 2013, 344, 436-446).
Topical dermal application of phorbol ester 12-O-tetradecanoylphorbol-13-acetate (TPA) in mice causes an inflammatory response that is characterized by edema and neutrophil influx at the early phase (2-24 h) and by epidermal cell proliferation at the later phase (24-48 h) (Griffiths et al., Agents and Actions, 1988, 25, 344-351). Female Balb/c mice were topically administered with either vehicle (1:7 DMSO:acetone) or 20 μL of a solution of TPA (2.5 μg) in vehicle on each ear. At 30 min before and 15 min after TPA administration, either vehicle or the compound of Example 2 at doses of 30, 100, 300, 1000, and 3000 μg in vehicle was applied topically to each ear. The degree of inflammation was assessed as the change in ear thickness at 6 hours after TPA application.

[7] = system: IL-13 induced STAT6 phosphorylation in HT-29 human colorectal adenocarcinoma cells; assay: Cellular JAK potency assay: inhibition of IL-13; format: cell-based; conditions: HT-29 cells
Experimental: The potency of test compounds for inhibition of the JAK-dependent cytokine interleuken-13 (IL-13) was assessed by measuring IL-13 (IL-13, R&D Systems) induced STAT6 phosphorylation in HT-29 human colorectal adenocarcinoma cells (ATCC).
The anti-STAT6 antibody (Cell Signaling Technologies) was conjugated to AlphaScreen acceptor beads (Perkin Elmer), while the anti-pSTAT6 (pTyr641) antibody (Cell Signaling Technologies) was biotinylated using EZ-Link Sulfo-NHS-Biotin (Thermo Scientific).
HT-29 cells were grown at 37° C. in a 5% CO2 humidified incubator in McCoy's 5a Modified medium (ATCC) supplemented with 10% FBS (Hyclone), 100 U/mL penicillin, 100 μg/mL streptomycin (Life Technologies), and 2 mM GlutaMAX (Life Technologies). On day 1 of the assay, cells were seeded at a 7,500 cells/well density in white poly-D-lysine-coated 384-well plates (Corning) with 25 μL medium, and were allowed to adhere overnight in the incubator. On day 2 of the assay, the medium was removed and replaced with 12 μL of assay buffer (Hank's Balanced Salt Solution/HBSS, 25 mM HEPES, and 1 mg/ml bovine serum albumin/BSA) containing dose-responses of test compounds. Compounds were serially diluted in DMSO and then diluted another 1000-fold in media to bring the final DMSO concentration to 0.1%. Cells were incubated with test compounds at 37° C. for 1 h, and followed by the addition of 12 μl of pre-warmed IL-13 (12 ng/ml in assay buffer) for stimulation. After incubating at 37° C. for 30 min, the assay buffer (containing compound and IL-13) was removed, and 10 μl of cell lysis buffer (25 mM HEPES, 0.1% SDS, 1% NP-40, 5 mM MgCl2, 1.3 mM EDTA, 1 mM EGTA, and supplement with Complete Ultra mini protease inhibitors and PhosSTOP from Roche Diagnostics). The plates were shaken at ambient temperature for 30 min before the addition of detection reagents. A mixture of biotin-anti-pSTAT6 and anti-STAT6 conjugated acceptor beads was added first and incubated at ambient temperature for 2 h, followed by the addition of streptavidin conjugated donor beads (Perkin Elmer). After a minimum of 2 h incubation, the assay plates were read on the EnVision plate reader.
Results were expressed as the negative logarithm of the IC50 value, pIC50.

JAK1 = JAK1 (Homo sapiens (Human), UniProt P23458); assay: LanthaScreen JAK biochemical assay, JAK1
Experimental: (§1) A panel of four LanthaScreen JAK biochemical assays (JAK1, 2, 3 and Tyk2) were carried in a common kinase reaction buffer (50 mM HEPES, pH 7.5, 0.01% Brij-35, 10 mM MgCl2, and 1 mM EGTA). Recombinant GST-tagged JAK enzymes and a GFP-tagged STAT1 peptide substrate were obtained from Life Technologies.
(§2) Serially diluted compounds were pre-incubated with each of the four JAK enzymes and the substrate in white 384-well microplates (Corning) at ambient temperature for 1 h. ATP was subsequently added to initiate the kinase reactions in 10 μl total volume, with 1% DMSO. […] The plates were allowed to incubate at ambient temperature for 1 h before being read on the EnVision reader (Perkin Elmer).
(§3) For dose-response analysis, percent inhibition data were plotted vs. compound concentrations, and IC50 values were determined from a 4-parameter robust fit model with the Prism software (GraphPad Software). Results were expressed as pIC50 (negative logarithm of IC50) and subsequently converted to pKi (negative logarithm of dissociation constant, Ki) using the Cheng-Prusoff equation.

JAK2 = JAK2 (Homo sapiens (Human), UniProt O60674); assay: LanthaScreen JAK biochemical assay, JAK2
Experimental: as §1, §2, §3

JAK3 = JAK3 (Homo sapiens (Human), UniProt P52333); assay: LanthaScreen JAK biochemical assay, JAK3
Experimental: as §1, §2, §3

Tyk2 = Tyk2 (Homo sapiens (Human), UniProt P29597); assay: LanthaScreen JAK biochemical assay, Tyk2
Sequence of Tyk2 (P29597 whole entry): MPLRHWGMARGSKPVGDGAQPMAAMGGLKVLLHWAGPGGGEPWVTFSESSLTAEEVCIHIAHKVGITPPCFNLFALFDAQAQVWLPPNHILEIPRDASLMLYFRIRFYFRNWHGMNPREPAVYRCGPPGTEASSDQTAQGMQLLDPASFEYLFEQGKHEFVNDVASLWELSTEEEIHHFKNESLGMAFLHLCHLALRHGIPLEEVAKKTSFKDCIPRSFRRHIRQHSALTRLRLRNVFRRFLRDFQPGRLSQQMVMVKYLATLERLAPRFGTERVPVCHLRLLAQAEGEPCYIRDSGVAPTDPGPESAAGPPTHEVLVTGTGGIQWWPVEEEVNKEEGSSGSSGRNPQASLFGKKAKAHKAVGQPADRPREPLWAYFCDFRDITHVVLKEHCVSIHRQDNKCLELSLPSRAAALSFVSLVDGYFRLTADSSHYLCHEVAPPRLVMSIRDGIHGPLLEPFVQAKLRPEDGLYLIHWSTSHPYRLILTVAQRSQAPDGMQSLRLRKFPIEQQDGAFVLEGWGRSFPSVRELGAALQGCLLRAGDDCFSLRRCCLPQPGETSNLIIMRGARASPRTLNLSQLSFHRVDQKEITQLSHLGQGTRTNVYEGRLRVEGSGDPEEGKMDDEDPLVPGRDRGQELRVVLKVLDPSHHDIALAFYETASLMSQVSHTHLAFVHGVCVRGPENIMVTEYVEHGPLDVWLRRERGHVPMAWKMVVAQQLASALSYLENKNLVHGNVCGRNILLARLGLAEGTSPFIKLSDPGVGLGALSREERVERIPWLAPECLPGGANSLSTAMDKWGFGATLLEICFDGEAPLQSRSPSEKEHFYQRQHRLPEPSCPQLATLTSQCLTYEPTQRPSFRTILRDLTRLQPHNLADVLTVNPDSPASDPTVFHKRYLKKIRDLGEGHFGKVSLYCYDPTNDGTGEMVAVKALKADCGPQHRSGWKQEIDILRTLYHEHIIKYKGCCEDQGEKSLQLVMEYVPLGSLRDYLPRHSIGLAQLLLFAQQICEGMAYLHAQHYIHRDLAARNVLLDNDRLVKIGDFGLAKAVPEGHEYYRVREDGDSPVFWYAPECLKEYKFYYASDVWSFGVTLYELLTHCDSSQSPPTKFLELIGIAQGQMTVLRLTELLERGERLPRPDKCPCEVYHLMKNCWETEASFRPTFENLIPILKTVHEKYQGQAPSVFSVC
Experimental: as §1, §2, §3

Sequence of JAK2 (O60674 whole entry): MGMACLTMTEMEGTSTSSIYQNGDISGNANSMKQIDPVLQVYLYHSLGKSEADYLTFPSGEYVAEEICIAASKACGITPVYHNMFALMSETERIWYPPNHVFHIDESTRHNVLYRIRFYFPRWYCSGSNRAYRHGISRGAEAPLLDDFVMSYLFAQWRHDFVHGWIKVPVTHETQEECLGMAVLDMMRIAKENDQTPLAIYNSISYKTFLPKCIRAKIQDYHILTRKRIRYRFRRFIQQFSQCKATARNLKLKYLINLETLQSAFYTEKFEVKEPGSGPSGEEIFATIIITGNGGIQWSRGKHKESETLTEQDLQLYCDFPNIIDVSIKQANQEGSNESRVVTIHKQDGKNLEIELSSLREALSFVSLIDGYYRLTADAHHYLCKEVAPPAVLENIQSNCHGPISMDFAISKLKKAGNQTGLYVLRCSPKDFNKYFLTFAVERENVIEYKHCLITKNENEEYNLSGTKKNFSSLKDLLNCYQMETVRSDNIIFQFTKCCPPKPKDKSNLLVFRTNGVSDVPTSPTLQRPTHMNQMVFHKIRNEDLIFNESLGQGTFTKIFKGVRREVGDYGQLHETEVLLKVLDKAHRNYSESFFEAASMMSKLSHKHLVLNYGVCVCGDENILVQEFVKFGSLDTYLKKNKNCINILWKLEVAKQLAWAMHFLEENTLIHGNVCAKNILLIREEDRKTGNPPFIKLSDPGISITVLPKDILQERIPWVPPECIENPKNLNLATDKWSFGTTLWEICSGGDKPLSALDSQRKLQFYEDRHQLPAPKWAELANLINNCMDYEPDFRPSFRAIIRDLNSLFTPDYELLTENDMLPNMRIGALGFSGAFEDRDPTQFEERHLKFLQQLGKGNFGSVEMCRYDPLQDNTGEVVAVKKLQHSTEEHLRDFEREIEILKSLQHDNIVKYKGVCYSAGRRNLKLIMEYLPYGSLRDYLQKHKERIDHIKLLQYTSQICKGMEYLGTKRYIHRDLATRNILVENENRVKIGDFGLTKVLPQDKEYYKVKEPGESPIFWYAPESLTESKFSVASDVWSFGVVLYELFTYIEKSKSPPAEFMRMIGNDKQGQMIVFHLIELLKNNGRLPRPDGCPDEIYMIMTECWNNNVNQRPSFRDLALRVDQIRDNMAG
Sequence of JAK3 (P52333 whole entry): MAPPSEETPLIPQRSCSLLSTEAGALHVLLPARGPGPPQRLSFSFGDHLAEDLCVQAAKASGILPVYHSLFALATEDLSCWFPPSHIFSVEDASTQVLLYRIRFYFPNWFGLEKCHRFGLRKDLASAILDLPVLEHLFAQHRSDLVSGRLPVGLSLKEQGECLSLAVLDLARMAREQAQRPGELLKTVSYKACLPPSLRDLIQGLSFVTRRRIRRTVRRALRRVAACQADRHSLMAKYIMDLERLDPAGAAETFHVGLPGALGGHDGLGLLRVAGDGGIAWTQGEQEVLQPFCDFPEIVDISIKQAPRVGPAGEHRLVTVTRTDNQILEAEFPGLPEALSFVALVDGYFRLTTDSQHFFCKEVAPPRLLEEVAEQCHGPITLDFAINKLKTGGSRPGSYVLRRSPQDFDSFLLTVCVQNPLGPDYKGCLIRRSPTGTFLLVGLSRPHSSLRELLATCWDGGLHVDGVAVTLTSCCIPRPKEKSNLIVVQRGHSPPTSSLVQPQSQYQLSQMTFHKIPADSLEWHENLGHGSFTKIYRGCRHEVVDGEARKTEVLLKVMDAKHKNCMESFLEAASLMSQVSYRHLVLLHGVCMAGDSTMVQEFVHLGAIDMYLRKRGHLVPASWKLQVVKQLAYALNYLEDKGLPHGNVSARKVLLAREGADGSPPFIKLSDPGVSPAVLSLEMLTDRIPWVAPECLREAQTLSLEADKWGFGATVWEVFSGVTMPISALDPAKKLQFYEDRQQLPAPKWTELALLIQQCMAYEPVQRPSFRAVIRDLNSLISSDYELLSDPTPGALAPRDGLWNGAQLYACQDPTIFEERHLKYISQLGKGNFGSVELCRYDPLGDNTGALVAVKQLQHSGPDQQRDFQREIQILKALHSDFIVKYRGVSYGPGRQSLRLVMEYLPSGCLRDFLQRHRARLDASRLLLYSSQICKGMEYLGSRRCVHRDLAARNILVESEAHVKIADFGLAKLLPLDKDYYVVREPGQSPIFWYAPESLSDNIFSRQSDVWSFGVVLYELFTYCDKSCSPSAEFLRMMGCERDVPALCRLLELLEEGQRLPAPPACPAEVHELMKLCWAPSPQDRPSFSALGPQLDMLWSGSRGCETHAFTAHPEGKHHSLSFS
Sequence of JAK1 (P23458 whole entry): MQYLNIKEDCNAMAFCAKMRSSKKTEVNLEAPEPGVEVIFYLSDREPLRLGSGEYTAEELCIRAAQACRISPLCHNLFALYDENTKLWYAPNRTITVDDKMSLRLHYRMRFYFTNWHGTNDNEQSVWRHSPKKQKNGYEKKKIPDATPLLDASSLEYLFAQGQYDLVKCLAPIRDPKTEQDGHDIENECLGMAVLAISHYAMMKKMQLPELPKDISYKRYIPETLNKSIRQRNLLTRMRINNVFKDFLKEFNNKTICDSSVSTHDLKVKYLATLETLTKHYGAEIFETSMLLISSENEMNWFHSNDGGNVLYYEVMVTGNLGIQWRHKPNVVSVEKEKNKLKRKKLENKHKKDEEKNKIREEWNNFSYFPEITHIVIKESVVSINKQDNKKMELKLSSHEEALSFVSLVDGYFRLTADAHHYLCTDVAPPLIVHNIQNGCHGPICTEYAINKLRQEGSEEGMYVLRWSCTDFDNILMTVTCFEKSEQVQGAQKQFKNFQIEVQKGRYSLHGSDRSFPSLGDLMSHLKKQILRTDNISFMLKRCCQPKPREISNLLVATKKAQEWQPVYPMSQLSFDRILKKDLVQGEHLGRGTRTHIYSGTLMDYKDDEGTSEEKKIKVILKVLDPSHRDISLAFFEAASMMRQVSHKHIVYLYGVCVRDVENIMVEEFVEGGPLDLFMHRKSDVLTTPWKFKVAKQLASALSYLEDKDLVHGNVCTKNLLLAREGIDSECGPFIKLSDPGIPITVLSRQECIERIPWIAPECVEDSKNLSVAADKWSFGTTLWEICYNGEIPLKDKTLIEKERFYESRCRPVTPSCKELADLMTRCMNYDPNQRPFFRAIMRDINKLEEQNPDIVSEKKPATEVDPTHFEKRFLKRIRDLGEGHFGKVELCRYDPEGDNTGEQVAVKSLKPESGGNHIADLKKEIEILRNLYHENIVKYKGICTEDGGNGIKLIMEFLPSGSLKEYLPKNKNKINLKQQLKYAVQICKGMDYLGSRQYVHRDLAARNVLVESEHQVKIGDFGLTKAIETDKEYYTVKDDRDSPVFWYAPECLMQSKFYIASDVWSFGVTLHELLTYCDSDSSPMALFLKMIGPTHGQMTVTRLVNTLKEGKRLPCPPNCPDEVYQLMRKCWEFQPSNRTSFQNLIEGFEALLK

| SMILES | absorption at the portal vein (Fa%) [1] | ratio of exposure in the colon to exposure in plasma [2] | decrease in DAI score as compared with vehicle treated animals [3] | effect of immunosuppression [4] | treatment effect on B and T cell populations [4] | duration of sustained dermal levels ([5]; Gottingen, minipig) | duration of sustained dermal levels ([5]; male, Balb/c, mouse) | inhibition of TPA-induced increase in ear thickness ([6]; topical 30-3000 μg per ear) | maximum statistically significant inhibition of TPA-induced increase in ear thickness ([6]; topical, 1000 μg dose) | HT-29 (pIC50) [7] | oral bioavailability (F %) ([1]; jugular vein) | JAK 1 (pKi) (JAK1) | JAK 2 (pKi) (JAK2) | JAK 3 (pKi) (JAK3) | Tyk 2 (pKi) (Tyk2) |
| --- | --- | --- | --- | --- | --- | --- | --- | --- | --- | --- | --- | --- | --- | --- | --- |
| COc1cc(Nc2cc(CO)[nH]n2)nc(N(C)[C@@H]2C[C@H]3CCC[C@@H](C2)N3S(=O)(=O)N2CC(C#N)C2)n1 [Example 2, 1-(((1R,3s,5S)-3-((4-((5-(Hydroxymethyl)-1H-pyrazol-3-yl)amino)-6-methoxypyrimidin-2-yl)(methyl)amino)-9-azabicyclo[3.3.1]nonan-9-yl)sulfonyl)azetidine-3-carbonitrile] | less than 25% | greater than 250 | demonstrated activity; also recorded: statistically significant decrease | minimal effect of immunosuppression | No treatment effect | at least 7 days | at least 2 days | dose- and concentration-dependent effect; also recorded: dose- and concentration-dependent inhibition | 41% |  |  |  |  |  |  |
| COc1cc(Nc2cc(CO)[nH]n2)nc(N(C)[C@@H]2C[C@H]3CC[C@@H](C2)N3S(=O)(=O)N2CC(C#N)C2)n1 [Example 1, 1-(((1R,3s,5S)-3-((4-((5-(Hydroxymethyl)-1H-pyrazol-3-yl)amino)-6-methoxypyrimidin-2-yl)(methyl)amino)-8-azabicyclo[3.2.1]octan-8-yl)sulfonyl)azetidine-3-carbonitrile] | less than 25% |  | did not exhibit a statistically significant decrease |  |  |  |  |  |  | B (B represents a pIC50 value between 6.7 and 7.5 (IC50 between 200 nM and 32 nM)) | less than 5% | A (A represents a pKi value ≥10 (Ki≤0.1 nM)) | A (A represents a pKi value ≥10 (Ki≤0.1 nM)) | C (C represents a pKi value between 8 and 9 (Ki between 10 nM and 1 nM)) | B (B represents a pKi value between 9 and 10 (Ki between 1 nM and 0.1 nM)) |
| C[C@@H]1CCN(C(=O)CC#N)C[C@@H]1N(C)c1ncnc2[nH]ccc12 [tofacitinib, reference compound] |  |  |  |  | No treatment effect |  |  |  |  |  |  |  |  |  |  |
